Reference: patent US4835156A, “Vasodilatory dihydrodibenzocycloheptyliden-ethyl piperazine derivatives and process for the preparation of these compounds” (Sociedad Espanola De Especialidades Terepeuticas, S.A., priority 1983, dated 1989)

How the values were obtained:
[1] = Toxicity, indicative LD50, intraperitoneal; conditions: mouse, in vivo, ip, Swiss mice, 7 days post-administration
Method: Table 4 sets forth the results of the indicative LD50 for the most representative of the compounds according to the present invention.
The compounds are administered by the intraperitoneal route to Swiss mice, after which the toxic effects are observed, and the mortality rate and the LD50 7 days post-administration are calculated.

Rat hind-quarters = assay: Vasodilatory activity, isolated rat hind-quarters (antagonism of vasoconstriction by hyperkalaemic Tyrode solution); conditions: crosses relative to standard drugs cinnarizine and flunarizine;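 also: four crosses equal an effect comparable to the standard drug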
Text: (§1) The significance of the symbols is as follows:
In order to test the vasodilatory activity, the first trial employs the technique of the isolated rat hind-quarters (Table 2), which involves antagonizing the vasoconstrictive effect of perfusion of hyperkalaemic Tyrode solution, according to the method of F. N. Fastier and F. H. Smirk (J. Pharm. Exp. Therap. 89, […] (1947)), and then calculating for the products which show the greatest activity, the ED30, that is the dose which produces a 30% vasodilatory activity with respect to the basic vasoconstriction.

[2] = test system: Rabbit cerebral territory; assay: Vasodilation in perfused rabbit cerebral territory (variation in perfusion pressure); format: in vivo; conditions: for Vasodilatory Index: % vasodilation multiplied by duration of action; for Vasodilatory Activity (Rabbit cerebral territory) Evaluation: crosses relative to standard cinnarizine;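 as to Vasodilatory Activity (Rabbit cerebral territory) Evaluation: four crosses equal an effect comparable to the standard drug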
Method: as §1
In a further trial, the vasodilatory activity is evaluated by the technique of vasodilation in perfused rabbit cerebral territory as described by P. Vaupel and H. Hutten (Arzneim. Forsch./Drug Res. 30(I), 598-602 (1980)), calculating the variation in perfusion pressure after treatment (Table 3).
Table 3 employs the same conventional signs based on crosses, with the same relative significance as in Table 2.

Row | Compound | LD50 at 168 h [1] [mg/kg] | Vasodilatory Activity (Rat hind-quarters) Evaluation (Rat hind-quarters) | Vasodilatory Index [2] [mm^2] | Vasodilatory Activity (Rabbit cerebral territory) Evaluation [2]
1 | C(CN1CCN(Cc2ccncc2)CC1)=C1c2ccccc2CCc2ccccc21 [WAS-4220] | 185 | 0 | 1159.2 | ++++
2 | O=C(CN1CCN(CC=C2c3ccccc3CCc3ccccc32)CC1)c1ccccc1 [WAS-4602] | 200 | 0 | 378.3 | +++
3 | O=C(O)CN1CCN(CC=C2c3ccccc3CCc3ccccc32)CC1 [WAS-4233] | 900 | 0 | 0 | 0
4 | C(CN1CCN(Cc2cccs2)CC1)=C1c2ccccc2CCc2ccccc21 [WAS-4226, N-2-(10,11-dihydrodibenzo-(a,d)-cyclohept-5-yliden)-ethyl-N'-(2-thenyl)-piperazine] | 385 | 0 | 74.0 | 0
5 | C(CN1CCN(Cc2ccccn2)CC1)=C1c2ccccc2CCc2ccccc21 [WAS-4232] | 115 | ++ | 46.8 | 0
6 | C(=Cc1ccccc1)CN1CCN(CC=C2c3ccccc3CCc3ccccc32)CC1 [WAS-4207] | 925 | ++++ | 16.2 | 0
7 | OCCN1CCN(CC=C2c3ccccc3CCc3ccccc32)CC1 [WAS-4229] | 115 | 0 | 55.6 | 0
8 | Fc1ccc(C(c2ccc(F)cc2)N2CCN(C/C=C/c3ccccc3)CC2)cc1 [Flunarizine, reference compound] | – | ++++ | – | –
9 | O=C(CN1CCN(CC=C2c3ccccc3CCc3ccccc32)CC1)N1CCOCC1 [WAS-4222] | 185 | + | 454.6 | ++++
10 | C(CN1CCN(Cc2cccnc2)CC1)=C1c2ccccc2CCc2ccccc21 [WAS-4227] | 175 | + | 253.7 | ++
11 | C=CCN1CCN(CC=C2c3ccccc3CCc3ccccc32)CC1 [WAS-4225] | 175 | ++++ | 0 | 0
12 | C(CN1CCN(Cc2ccc3c(c2)OCO3)CC1)=C1c2ccccc2CCc2ccccc21 [WAS-4234] | 600 | 0 | 0 | 0
13 | C(CN1CCN(Cc2ccccc2)CC1)=C1c2ccccc2CCc2ccccc21 [WAS-4206, N-benzyl-N'-2-(10,11-dihydrodibenzo-(a,d)-cyclohept-5-yliden)-ethyl piperazine] | 880 | ++++ | 285.3 | ++
14 | O=C(CN1CCN(CC=C2c3ccccc3CCc3ccccc32)CC1)NC(=O)NCN1CCOCC1 [WAS-4601] | 125 | ++++ | 180.8 | +
15 | O=C(C=CCN1CCN(CC=C2c3ccccc3CCc3ccccc32)CC1)c1ccccc1 [WAS-4605] | 115 | ++++ | 420.9 | ++++
16 | C(CN1CCN(Cc2ccco2)CC1)=C1c2ccccc2CCc2ccccc21 [WAS-4221] | 185 | 0 | 321.4 | +++
17 | COC(=O)c1cc(CN2CCN(CC=C3c4ccccc4CCc4ccccc43)CC2)ccc1O [WAS-4604] | 900 | + | 20.0 | 0
18 | CCOC(=O)CN1CCN(CC=C2c3ccccc3CCc3ccccc32)CC1 [WAS-4231] | 175 | ++ | 0 | 0
19 | O=C(CN1CCN(CC=C2c3ccccc3CCc3ccccc32)CC1)N1CCCC1 [WAS-4224] | 385 | 0 | 342.0 | +++
20 | O=C(CN1CCN(CC=C2c3ccccc3CCc3ccccc32)CC1)NC12CC3CC(CC(C3)C1)C2 [WAS-4239] | 340 | ++ | 0 | 0
21 | COC(=O)C=CCN1CCN(CC=C2c3ccccc3CCc3ccccc32)CC1 [WAS-4237] | 3000 | ++++ | 19.6 | 0
22 | O=C(CN1CCN(CC=C2c3ccccc3CCc3ccccc32)CC1)N1CCCCC1 [WAS-4223] | 185 | 0 | 1133.6 | ++++
